What was measured:
[1] = tested on: 14 DIV mouse hippocampal neurons; assay: oAβ-induced spine loss: drebrin-positive spine density in cultured hippocampal neurons; assay type: cell-based; settings: oAβ 1 µM + inhibitor 24 h vs oAβ alone; NVS-PAK1-1 10 nM, NVS-PAK1-C 10 nM, AZ13705339 1 nM, G5555 5 nM
Protocol: (§1) For in vitro study, all animal procedures were conducted in accordance with the National Institutes of Health Guide for the Care and Use of Laboratory Animals using protocols approved by the institutional animal care and use committee at Stanford University. Timed pregnant C57BL/6 mice (Strain code: 027) were purchased from Charles River Laboratories and delivered on embryonic day 15 (E15), after which E16 embryos were used for primary hippocampal cultures. Primary embryonic mouse hippocampal neuron cultures were plated on poly‐D‐lysine‐coated (10 µg/mL) glass cover slips at 40,000 to 50,000 cells per well in 12‐well plates (Corning Life Sciences). Cells were seeded in plating medium DMEM/F12 supplemented with 10% fetal bovine serum and 1 × penicillin/streptomycin (PS) for 2 hours. Medium was then changed to B‐27 Plus Neuronal Culture System (Invitrogen) supplemented with PS, and 2 mM glutamine.
(§2) Immunofluorescence was performed as described previously.[24] Briefly, cultured hippocampal neurons were fixed in 4% formaldehyde for 20 minutes, permeabilized for 6 minutes in 80% ice‐cold methanol, and incubated with primary antibodies at 4°C overnight. Primary antibodies used were rabbit polyclonal MAP2 antibody for labeling dendrites (1:1000, #8707, Cell Signaling) and mouse monoclonal drebrin antibody for labeling dendritic spines (1:300; Cat#ADI‐NBA‐110, Enzo). Secondary antibodies consisted of donkey antirabbit or antimouse conjugated with either FITC or Cy3 (1:400; Jackson ImmunoResearch Laboratories, Inc.).
(§3) The cultured hippocampal neurons were imaged using an oil‐based 63x objective on a Leica Stellaris 5 confocal microscope. The cell nucleus was stained with DAPI and imaged at a wavelength of 405 nm (blue channel), the dendrites stained by MAP2 were imaged at 488 nm wavelength (green channel), and the drebrin‐stained spines were imaged at a wavelength of 561 nm (red channel). Z‐stack images of neurons were acquired at a 1024 × 1024 resolution, a zoom factor of 1.0, and a z‐step size of 0.5 µm. The number of steps for every z‐stack picture of a neuron were determined by the size of the neuron in the z‐plane, to ensure that the entirety of a neuron is captured in the picture. The areas to be imaged were selected systematically, starting from the top‐left region to proceeding to the bottom‐right region of a coverslip. For imaging, preference was given to field of views containing isolated neurons versus clustered neurons.
For quantification of drebrin‐positive spines in vitro, the images were analyzed using Imaris 9.3 software. Each image consisted of one major neuron and the “filaments” option in Imaris was applied to manually trace along the dendrites of every neuron, by placing starting and seed points at the beginning and along the length of the dendrites, respectively. The largest dendrite diameter (i.e., Starting Point) was set at 9.00 µm threshold while the thinnest dendrite diameter (i.e., Seed Point) was set at 1.00 µm threshold. After manually tracing the dendrites, the spines along the dendrites were assessed using the automatic “spine detection” function in Imaris. […] The spine density (number of spines/dendrite length) was then calculated for each neuron. All image acquisition and quantification were performed in a blind manner. For in vitro quantification of dendrite degeneration, Neurolucida (MBF Biosciences) in the manual mode was used to measure the total dendritic length, numbers of dendrites, and dendritic complexity for each neuron.

[2] = tested on: 14 DIV mouse hippocampal neurons; assay: oTau-induced spine loss: drebrin-positive spine density in cultured hippocampal neurons; assay type: cell-based; settings: oTau 50 nM + inhibitor 24 h vs oTau alone; NVS-PAK1-1 10 nM, NVS-PAK1-C 10 nM, AZ13705339 1 nM, G5555 5 nM
Protocol: as §1, §2
The cultured hippocampal neurons were imaged using an oil‐based 63x objective on a Leica Stellaris 5 confocal microscope. The cell nucleus was stained with DAPI and imaged at a wavelength of 405 nm (blue channel), the dendrites stained by MAP2 were imaged at 488 nm wavelength (green channel), and the drebrin‐stained spines were imaged at a wavelength of 561 nm (red channel). […] The number of steps for every z‐stack picture of a neuron were determined by the size of the neuron in the z‐plane, to ensure that the entirety of a neuron is captured in the picture. […]
For quantification of drebrin‐positive spines in vitro, the images were analyzed using Imaris 9.3 software. […] After manually tracing the dendrites, the spines along the dendrites were assessed using the automatic “spine detection” function in Imaris. […] The spine density (number of spines/dendrite length) was then calculated for each neuron. All image acquisition and quantification were performed in a blind manner. For in vitro quantification of dendrite degeneration, Neurolucida (MBF Biosciences) in the manual mode was used to measure the total dendritic length, numbers of dendrites, and dendritic complexity for each neuron.

[3] = tested on: 14 DIV hippocampal neurons; assay: oAβ-induced dendrite degeneration (MAP2 dendrite length, number, complexity) in cultured hippocampal neurons; assay type: cell-based, mouse; settings: oAβ 1 µM + inhibitor 24 h vs oAβ alone, NVS-PAK1-1 10 nM, AZ 1 nM, G 5 nM; for total dendrite length per neuron: PAK1-C 10 nM
Protocol: as §1, §2, §3
(§4) For quantification of drebrin‐positive spines in vitro, the images were analyzed using Imaris 9.3 software. Each image consisted of one major neuron and the “filaments” option in Imaris was applied to manually trace along the dendrites of every neuron, by placing starting and seed points at the beginning and along the length of the dendrites, respectively. The largest dendrite diameter (i.e., Starting Point) was set at 9.00 µm threshold while the thinnest dendrite diameter (i.e., Seed Point) was set at 1.00 µm threshold. After manually tracing the dendrites, the spines along the dendrites were assessed using the automatic “spine detection” function in Imaris. The thinnest spine diameter was set at 0.80 µm threshold while the maximum spine length was set at 5.00 µm. The spine density (number of spines/dendrite length) was then calculated for each neuron. All image acquisition and quantification were performed in a blind manner. For in vitro quantification of dendrite degeneration, Neurolucida (MBF Biosciences) in the manual mode was used to measure the total dendritic length, numbers of dendrites, and dendritic complexity for each neuron.

[4] = tested on: 14 DIV hippocampal neurons; assay: oTau-induced dendrite degeneration (MAP2 dendrite length, number) in cultured hippocampal neurons; assay type: cell-based, mouse; settings: oTau 50 nM + inhibitor 24 h vs oTau alone, NVS-PAK1-1 10 nM, AZ 1 nM, G 5 nM; for total dendrite length per neuron: PAK1-C 10 nM
Protocol: as §1, §2, §3, §4

[5] = tested on: kinome; broad panel of proteases, receptors, and bromodomains; settings: cited from earlier work

SMILES	drebrin-stained spine density (spine counts per µm of dendritic length) [1]	drebrin-stained spine density (spine counts per µm of dendritic length) [2]	dendrite number per neuron [3]	total dendrite length per neuron [3]	dendrite number per neuron [4]	total dendrite length per neuron [4]	off-target kinase inhibition [5]
CCS(=O)(=O)c1cc(Nc2ncc(F)c(N(Cc3ccccc3C#N)c3cc(CO)ccc3C)n2)ccc1N1CCN(C)CC1 [AZ13705339]	significantly higher spine counts	significantly higher spine counts	significantly increased dendrite number per neuron	preserved dendrite length	significantly increased dendrite number per neuron	preserved dendrite length	inhibit off‐target kinases
CNc1ncc2cc(-c3ccc(-c4cccc(C)n4)cc3Cl)c(=O)n(C[C@H]3OC[C@H](N)CO3)c2n1 [G5555]	significantly higher spine counts	significantly higher spine counts	significantly increased dendrite number per neuron	Neither G nor PAK1‐C showed a significant dendrite length difference	significantly increased dendrite number per neuron	Neither G nor PAK1‐C showed a significant dendrite length difference	inhibit off‐target kinases
CN(C)C(=O)N1CC[C@H](N=C2Nc3cc(F)ccc3N(CC(F)F)c3ccc(Cl)cc32)C1 [NVS‐PAK1‐C]	not reflected	not reflected	–	Neither G nor PAK1‐C showed a significant dendrite length difference	–	Neither G nor PAK1‐C showed a significant dendrite length difference	–

— article PMC12741935 (Alzheimer's & Dementia, 2025)
